Where “and” joins values, the source holds several entries; their conditions need not be identical. Equal values may be shown once. Inconclusive results and toxic doses are left out.

This is an account of results in PubChem BioAssay AID248 (DTP/NCI, 2004).

In this assay the test system is L1210 leukemia ip in BDF1 mice, survival T/C. The experiment in a line: NCI In Vivo Anticancer Drug Screen. Data for tumor model L1210 Leukemia (intraperitoneal) in B6D2F1 (BDF1) mice. To be noted: endpoint: mean survival time, higher = longer survival. Put shortly: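 Read-out is survival time, reported as the treated-group measurement over the vehicle-control measurement.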

The mark [1] stands for this setting: dose: 100.0 mg/kg/injection, schedule: Q04DX003 (ip), vehicle: saline with Tween-80.
Where [2] appears, read: dose: 200.0 mg/kg/injection, schedule: Q04DX003 (ip), vehicle: saline with Tween-80.
[3] abbreviates: dose: 100.0 mg/kg/injection, schedule: Q01DX001 (ip), vehicle: carboxymethylcellulose (CMC).
Setting [4] is: dose: 200.0 mg/kg/injection, schedule: Q01DX001 (ip), vehicle: carboxymethylcellulose (CMC).
The mark [5] stands for this setting: dose: 400.0 mg/kg/injection, schedule: Q01DX001 (ip), vehicle: carboxymethylcellulose (CMC).
[6] abbreviates: dose: 100.0 mg/kg/injection, schedule: Q01DX001 (ip), vehicle: Klucel (hydroxypropylcellulose) (HPC).
Setting [7] is: dose: 200.0 mg/kg/injection, schedule: Q01DX001 (ip), vehicle: Klucel (hydroxypropylcellulose) (HPC).
Setting [8] is: dose: 400.0 mg/kg/injection, schedule: Q01DX001 (ip), vehicle: Klucel (hydroxypropylcellulose) (HPC).
Setting [9] is: dose: 100.0 mg/kg/injection, schedule: Q01DX009 (ip), vehicle: Klucel (hydroxypropylcellulose) (HPC).
The mark [10] stands for this setting: dose: 200.0 mg/kg/injection, schedule: Q01DX009 (ip), vehicle: Klucel (hydroxypropylcellulose) (HPC).

Turning to `Cc1ccc(Cl)cc1NC(=O)Nc1ccc(N(C)C)cc1`, the T/C was 92 % of control (dose: 100.0 mg/kg/injection, schedule: Q01DX001 (ip), vehicle: saline with Tween-80); 87 % of control and 90 % of control (dose: 100.0 mg/kg/injection, schedule: Q01DX009 (ip), vehicle: saline with Tween-80); 95 % of control and 90 % of control (dose: 100.0 mg/kg/injection, schedule: Q04DX002 (ip), vehicle: saline with Tween-80); 92 % of control under setting [1]; 87 % of control (dose: 200.0 mg/kg/injection, schedule: Q01DX001 (ip), vehicle: saline with Tween-80); 89 % of control and 90 % of control (dose: 200.0 mg/kg/injection, schedule: Q01DX009 (ip), vehicle: saline with Tween-80). Also, the T/C is 98 % of control and 87 % of control (dose: 200.0 mg/kg/injection, schedule: Q04DX002 (ip), vehicle: saline with Tween-80); 92 % of control under setting [2]; 87 % of control (dose: 400.0 mg/kg/injection, schedule: Q01DX001 (ip), vehicle: saline with Tween-80); 97 % of control and 91 % of control (dose: 400.0 mg/kg/injection, schedule: Q01DX009 (ip), vehicle: saline with Tween-80); 87 % of control (dose: 400.0 mg/kg/injection, schedule: Q04DX002 (ip), vehicle: saline with Tween-80); 89 % of control (dose: 400.0 mg/kg/injection, schedule: Q04DX003 (ip), vehicle: saline with Tween-80).

Regarding `CCCCCCCc1nc2c([nH]1)c(=O)n(C)c(=O)n2C`, the T/C reads like this: (dose: 50.0 mg/kg/injection, schedule: Q01DX001 (ip), vehicle: saline) 98 % of control; (dose: 100.0 mg/kg/injection, schedule: Q01DX001 (ip), vehicle: saline) 101 % of control; (dose: 200.0 mg/kg/injection, schedule: Q01DX001 (ip), vehicle: saline) 95 % of control; (dose: 400.0 mg/kg/injection, schedule: Q01DX001 (ip), vehicle: saline) 116 % of control.

As to `N#Cc1ccc(-c2ccc(N)cc2)cc1`, the T/C reads like this: (dose: 50.0 mg/kg/injection, schedule: Q01DX001 (ip), vehicle: carboxymethylcellulose (CMC)) 88 % of control; under setting [3], 90 % of control; under setting [4], 88 % of control; under setting [5], 90 % of control.

On to `CCOC(=O)OC(C#N)c1ccccc1` (configuration not stated), for which the T/C is 93 % of control (dose: 12.5 mg/kg/injection, schedule: Q01DX009 (ip), vehicle: saline with Tween-80) and 94 % of control (dose: 25.0 mg/kg/injection, schedule: Q01DX009 (ip), vehicle: saline with Tween-80).

With `O=C(Nc1ccc(NC(=O)Nc2cccc(C3=NCCN3)c2)cc1)Nc1cccc(C2=NCCN2)c1`, the T/C was 106 % of control (dose: 3.5 mg/kg/injection, schedule: Q#A X Z (ip), vehicle: saline); 115 % of control (dose: 7.0 mg/kg/injection, schedule: Q01DX Z (ip), vehicle: saline); 98 % of control (dose: 7.5 mg/kg/injection, schedule: Q01DX006 (iv), vehicle: saline); 117 % of control (dose: 7.5 mg/kg/injection, schedule: Q#A X Z (ip), vehicle: saline); 107 % of control (dose: 15.0 mg/kg/injection, schedule: Q01DX006 (iv), vehicle: saline); 111 % of control (dose: 15.0 mg/kg/injection, schedule: Q01DX Z (ip), vehicle: saline). The T/C is, setting by setting: (dose: 23.0 mg/kg/injection, schedule: Q03DX Z (ip), vehicle: saline) 116 % of control; (dose: 30.0 mg/kg/injection, schedule: Q01DX006 (iv), vehicle: saline) 116 % of control; (dose: 30.0 mg/kg/injection, schedule: Q01DX Z (sc), vehicle: carboxymethylcellulose (CMC)) 102 % of control; (dose: 47.0 mg/kg/injection, schedule: Q03DX Z (ip), vehicle: saline) 119 % of control; (dose: 55.0 mg/kg/injection, schedule: Q07DX Z (ip), vehicle: saline) 121 % of control; (dose: 60.0 mg/kg/injection, schedule: Q01DX010 (ip), vehicle: saline) 151 % of control and 153 % of control. In addition, the T/C was 110 % of control (dose: 60.0 mg/kg/injection, schedule: Q01DX Z (im), vehicle: saline); 286 % of control (dose: 60.0 mg/kg/injection, schedule: Q01DX Z (ip), vehicle: carboxymethylcellulose (CMC)); 110 % of control (dose: 60.0 mg/kg/injection, schedule: Q01DX Z (sc), vehicle: carboxymethylcellulose (CMC)); 121 % of control (dose: 94.0 mg/kg/injection, schedule: Q03DX Z (ip), vehicle: saline); 182 % of control and 215 % of control (dose: 120.0 mg/kg/injection, schedule: Q01DX010 (ip), vehicle: saline); 100 % of control (dose: 120.0 mg/kg/injection, schedule: Q01DX Z (im), vehicle: saline). Besides, the T/C is, setting by setting: (dose: 120.0 mg/kg/injection, schedule: Q01DX Z (ip), vehicle: carboxymethylcellulose (CMC)) 151 % of control; (dose: 120.0 mg/kg/injection, schedule: Q01DX Z (sc), vehicle: carboxymethylcellulose (CMC)) 104 % of control; (dose: 148.0 mg/kg/injection, schedule: Q01DX Z (ip), vehicle: carboxymethylcellulose (CMC)) 208 % of control; (dose: 219.0 mg/kg/injection, schedule: Q07DX Z (ip), vehicle: saline) 154 % of control; (dose: 222.0 mg/kg/injection, schedule: Q01DX Z (ip), vehicle: carboxymethylcellulose (CMC)) 298 % of control; (dose: 240.0 mg/kg/injection, schedule: Q01DX010 (ip), vehicle: saline) 236 % of control and 263 % of control. For the same compound, the T/C runs as follows: (dose: 240.0 mg/kg/injection, schedule: Q01DX Z (ip), vehicle: carboxymethylcellulose (CMC)) 318 % of control; (dose: 333.0 mg/kg/injection, schedule: Q01DX Z (ip), vehicle: carboxymethylcellulose (CMC)) 353 % of control; (dose: 480.0 mg/kg/injection, schedule: Q01DX010 (ip), vehicle: saline) 112 % of control and 268 % of control; (dose: 480.0 mg/kg/injection, schedule: Q01DX Z (im), vehicle: saline) 184 % of control; (dose: 480.0 mg/kg/injection, schedule: Q01DX Z (ip), vehicle: carboxymethylcellulose (CMC)) 102 % of control and 242 % of control; (dose: 500.0 mg/kg/injection, schedule: Q01DX Z (ip), vehicle: carboxymethylcellulose (CMC)) 328 % of control.

As for `Clc1ccc(SCC#CCOc2ccc(Cl)cc2Cl)cc1`, the T/C reads like this: under setting [6], 89 % of control; under setting [7], 95 % of control; under setting [8], 97 % of control.

Turning to `BrCC1(c2ccccc2)OCCO1`, the T/C reads like this: under setting [6], 100 % of control; under setting [9], 89 % of control; under setting [7], 92 % of control; under setting [10], 89 % of control; under setting [8], 98 % of control.

Turning to `COc1ccc(C(C)(O)c2cnc(C)n2Cc2ccccc2)cc1` (configuration not stated), the T/C is 99 % of control (dose: 100.0 mg/kg/injection, schedule: Q04DX003 (ip), vehicle: Klucel (hydroxypropylcellulose) (HPC)); 97 % of control (dose: 200.0 mg/kg/injection, schedule: Q04DX003 (ip), vehicle: Klucel (hydroxypropylcellulose) (HPC)); 95 % of control (dose: 400.0 mg/kg/injection, schedule: Q04DX003 (ip), vehicle: Klucel (hydroxypropylcellulose) (HPC)).

As to `ClCc1nc2ccccc2s1`, the T/C by setting is: under setting [9], 91 % of control; (dose: 100.0 mg/kg/injection, schedule: Q04DX002 (ip), vehicle: Klucel (hydroxypropylcellulose) (HPC)) 92 % of control; under setting [10], 98 % of control; (dose: 200.0 mg/kg/injection, schedule: Q04DX002 (ip), vehicle: Klucel (hydroxypropylcellulose) (HPC)) 103 % of control; (dose: 400.0 mg/kg/injection, schedule: Q04DX002 (ip), vehicle: Klucel (hydroxypropylcellulose) (HPC)) 103 % of control.

As for `CCCCC(O)(CCCC)CC(C)(C)C`, the T/C runs as follows: under setting [3], 103 % of control; under setting [4], 92 % of control; under setting [5], 92 % of control.

As to `C=C(Br)CN(C)C`, the T/C (dose: 50.0 mg/kg/injection, schedule: Q01DX009 (ip), vehicle: saline with Tween-80) is 117 % of control; the T/C under setting [1] is 96 % of control; the T/C under setting [2] was 102 % of control.

Turning to `CCOC(=O)CCOCOCCC(=O)OCC`, the T/C runs as follows: (dose: 100.0 mg/kg/injection, schedule: Q04DX003 (ip), vehicle: saline) 106 % of control; (dose: 200.0 mg/kg/injection, schedule: Q04DX003 (ip), vehicle: saline) 110 % of control; (dose: 400.0 mg/kg/injection, schedule: Q04DX003 (ip), vehicle: saline) 95 % of control.
